PMC8005474 (Journal of neuro-oncology, 2021)

Target: YAP1 (Yes-associated protein, YAP) (Homo sapiens, UniProt P46937)
Assay: SPR with immobilized full-length YAP
Format: binding

Chain of YAP1 (Yes-associated protein, YAP) (P46937 whole entry): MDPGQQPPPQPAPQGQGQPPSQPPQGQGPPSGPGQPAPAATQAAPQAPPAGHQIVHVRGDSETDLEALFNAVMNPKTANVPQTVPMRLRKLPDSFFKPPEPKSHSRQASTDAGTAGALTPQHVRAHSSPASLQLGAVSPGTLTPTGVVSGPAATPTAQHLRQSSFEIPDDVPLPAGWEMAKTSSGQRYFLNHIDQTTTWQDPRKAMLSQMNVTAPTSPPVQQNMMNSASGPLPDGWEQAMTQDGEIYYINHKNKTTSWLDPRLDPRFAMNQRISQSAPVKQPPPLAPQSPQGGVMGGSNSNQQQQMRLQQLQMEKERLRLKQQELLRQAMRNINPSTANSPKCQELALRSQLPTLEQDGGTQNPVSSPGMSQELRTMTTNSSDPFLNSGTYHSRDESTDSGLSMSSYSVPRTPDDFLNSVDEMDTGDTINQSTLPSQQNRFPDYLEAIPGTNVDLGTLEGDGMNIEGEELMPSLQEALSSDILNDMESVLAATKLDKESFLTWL

Kd: 738 nM
Compound: COc1ccc(-c2cc(-c3ccccc3)nc3c2CC(=O)Nc2ccccc2-3)cc1OC [NSC682769]
